Values after ≈ are worked out from the molar mass of the structure shown.
Experiments:
[1] = assay type: physicochemical
Protocol: To 31.0 g of tefuryltrione and 11.5 g of diphenylamine (equivalent mol to tefuryltrione), 10 mL of toluene was added and refluxed under heating at 90° C. for 1 hour. […] The melting point of the obtained compound was measured using a DSC (Differential Scanning calorimetry) and compared with those of the starting materials (Table 1).
The solubilities of the pesticide active ingredients in toluene and a toluene/isooctane mixture liquid (80/20, v/v) at room temperature were determined (Table 2).

[2] = cited from earlier work

In the case of `CS(=O)(=O)c1ccc(C(=O)C2C(=O)CCCC2=O)c(Cl)c1COCC1CCCO1` (stereo not shown) [Tefuryltrione, tefuryltrione], the “Solubility, Toluene” value [1] is reported as 97.8 mg/mL (≈ 221 mM) and the “Solubility, Toluene/isooctane mixture liquid (80/20, v/v)” value [1] is reported as 49.4 mg/mL (≈ 112 mM).

For `c1ccc(-c2ccccc2)cc1` [biphenyl], the Water solubility [2] is given as 7 ppm.

In the case of `c1ccc(C(c2ccccc2)c2ccccc2)cc1` [triphenylmethane], the “Water solubility (in words)” value [2] is given as “water insoluble”.

From patent US9204639B2, “Pesticide preparation and process for producing the same” (BAYER INTELLECTUAL PROPERTY GMBH, priority 2011, dated 2015)
